Data from patent US20100297256A1, “METHODS AND COMPOSITIONS FOR INHIBITING INTEGRINS USING TELLURIUM-CONTAINING COMPOUNDS” (priority 2007, published 2010).

Columns and labels:
[1] = tested on: West Nile Virus (WNV); test: WNV plaque assay; type: cell-based; conditions: Vero cells, added 1 hour before inoculation
Description: Vero cells were seeded at a density of 1×10^6 cells in 10 cm dishes 20 hours prior to infection. WNV (5×10^3 PFU/ml, MOI=0.005 PFU/cell) was added to the cultures, and the plates were incubated for 1 hour at 37° C. with 5% CO2. After incubation, the medium was removed and the cells were washed 6 times with PBS and overlaid with fresh EMEM medium containing 4% FCS (fetal calf serum) and 1% (w/v) agar. Cells were then incubated at 37° C. with 5% CO2 for 3 days until plaques appeared, and then fixed and stained with a solution of 0.5% crystal violet in a mixture of formalin (1% v/v) and ethanol (1.65% v/v). Plaques were counted over a light box after removal of the agar overlay.

[2] = tested on: West Nile Virus (WNV); test: WNV yield assay; type: cell-based; conditions: Vero cells, 5 μg/ml 1 hour before inoculation
Description: Vero cells were seeded as described above in 96-well plates. Cells were treated with AS101 and infected with WNV at MOI of 5 PFU/cell. The cells were washed six times with PBS, and fresh medium was added. The virus titer in harvested culture supernatants was determined by a microtitration assay as follows [Colley et al., in Colgan et al., Current Protocols in Immunology, John Wiley & Sons, New York, N.Y., 2003]: 10-fold serial dilutions of supernatants were used to infect Vero cells in 96-well plates. […] Viral titers (expressed as log 10 of TCID50/ml) were calculated according to the Spearman-Karber method [Hierholzer and Killington, in Mahy and Kangro, Virology Methods Manual, Academic Press, San Diego, Calif., 1996].

[3] = tested on: West Nile Virus (WNV); test: Western blot analysis of WNV protein synthesis (WNV-E protein); type: cell-based; conditions: Vero cells
Description: Vero cells grown in 6-well plates (2×10^5 cells/well) were harvested and total cell extracts were prepared by suspension in 50 μl of ice-cold lysis buffer containing 50 mM Tris (pH 8.0), 150 mM NaCl, 1% NP-40, 0.1% SDS, 5 mM EDTA, 0.2 mM PMSF, 50 mM NaF, […] sodium vanadate, 5 mg/ml aprotinin and 5 mg/ml leupeptin. Cell lysates were boiled for 5 minutes and electrophoresed on 8% SDS-polyacrylamide gel, and were then transferred to a nitrocellulose membrane which was then incubated consecutively with a monoclonal antibody against the WNV envelope (WNV-E) protein and an anti-β-actin or anti-tubulin monoclonal antibody. The Nitrocellulose membranes were developed using horseradish peroxidase-conjugated secondary antibodies and the ECL detection system (Pierce, Rockford, Ill.). Quantitative evaluation of E protein calibrated against tubulin or β-actin was done by scanning and analysis using the Image-J program (www.//rsb.info.nih.gov/ij).

[4] = tested on: HL-60 cells; test: AML chemotherapy resistance assay (XTT cell viability), HL-60; type: cell-based, human
Description: (§1) Cell viability was determined using a cell proliferation kit (Roche), which colors viable cells using the tetrazolium salt XTT.
(§2) 2×10^4 per 200 μl cells were seeded in 96-microwell flat bottom plates. After 24 hours, the tested compound(s) (e.g., AS101, ARA-C, DTNB, anti-VLA-4 antibody) was added, and the cells were incubated overnight with the tested compound(s). The XTT solution was then added and the cells were incubated for 4 hours at 37° C. Cell viability was than evaluated by measuring absorbance at 450 nm using a Microplate Spectrophotometer (Spectra MAX Plus, Molecular Devices).

[5] = tested on: U937 cells; test: AML chemotherapy resistance assay (XTT cell viability), U937; type: cell-based, human
Description: as §1, §2
The role of VLA protein in fibronectin-induced resistance to chemotherapy was investigated by performing a chemotherapy resistance assay, as described hereinabove, with anti-VLA-4 and anti-VLA-5 antibodies. U937 cells were grown in fibronectin- and BSA-coated plates. Antibodies were added at a concentration of 1 μg/ml.

[6] = biological target: T1, VLA-4 (Homo sapiens, UniProt P13612); test: Western blot analysis of VLA-4 thiols; type: cell-based; conditions: U937 cultured on fibronectin
T1 construct: free thiols are present on the integrin VLA-4 in leukemic cells; endogenous in cells; host or cells: U937 leukemic cells
T1 sequence (P13612 34-1032): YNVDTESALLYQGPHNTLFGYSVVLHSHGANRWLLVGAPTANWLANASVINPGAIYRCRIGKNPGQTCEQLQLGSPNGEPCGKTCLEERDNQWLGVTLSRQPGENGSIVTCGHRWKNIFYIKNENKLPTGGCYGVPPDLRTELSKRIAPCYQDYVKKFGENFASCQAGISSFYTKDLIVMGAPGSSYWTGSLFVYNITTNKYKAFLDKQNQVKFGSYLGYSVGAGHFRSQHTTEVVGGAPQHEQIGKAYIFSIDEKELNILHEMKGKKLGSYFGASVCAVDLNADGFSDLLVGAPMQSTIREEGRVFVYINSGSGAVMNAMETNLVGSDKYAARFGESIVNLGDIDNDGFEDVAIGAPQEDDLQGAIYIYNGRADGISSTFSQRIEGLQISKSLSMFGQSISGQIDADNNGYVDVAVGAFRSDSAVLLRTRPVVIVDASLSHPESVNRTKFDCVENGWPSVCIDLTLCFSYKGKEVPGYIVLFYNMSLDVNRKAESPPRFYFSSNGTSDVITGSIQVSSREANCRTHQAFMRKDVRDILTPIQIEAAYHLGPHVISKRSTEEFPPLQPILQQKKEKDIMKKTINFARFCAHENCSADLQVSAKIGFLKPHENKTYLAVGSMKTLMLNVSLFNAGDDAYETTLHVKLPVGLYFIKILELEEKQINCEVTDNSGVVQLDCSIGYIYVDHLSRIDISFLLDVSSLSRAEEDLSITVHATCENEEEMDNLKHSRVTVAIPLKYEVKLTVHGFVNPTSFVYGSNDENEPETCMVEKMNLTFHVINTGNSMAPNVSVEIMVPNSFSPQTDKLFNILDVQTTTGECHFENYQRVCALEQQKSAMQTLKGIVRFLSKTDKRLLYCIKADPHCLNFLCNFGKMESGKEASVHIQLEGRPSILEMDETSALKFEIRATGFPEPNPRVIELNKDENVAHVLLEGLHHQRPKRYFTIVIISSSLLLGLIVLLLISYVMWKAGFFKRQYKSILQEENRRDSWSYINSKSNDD
T1 sequence (P05556 21-798 partner): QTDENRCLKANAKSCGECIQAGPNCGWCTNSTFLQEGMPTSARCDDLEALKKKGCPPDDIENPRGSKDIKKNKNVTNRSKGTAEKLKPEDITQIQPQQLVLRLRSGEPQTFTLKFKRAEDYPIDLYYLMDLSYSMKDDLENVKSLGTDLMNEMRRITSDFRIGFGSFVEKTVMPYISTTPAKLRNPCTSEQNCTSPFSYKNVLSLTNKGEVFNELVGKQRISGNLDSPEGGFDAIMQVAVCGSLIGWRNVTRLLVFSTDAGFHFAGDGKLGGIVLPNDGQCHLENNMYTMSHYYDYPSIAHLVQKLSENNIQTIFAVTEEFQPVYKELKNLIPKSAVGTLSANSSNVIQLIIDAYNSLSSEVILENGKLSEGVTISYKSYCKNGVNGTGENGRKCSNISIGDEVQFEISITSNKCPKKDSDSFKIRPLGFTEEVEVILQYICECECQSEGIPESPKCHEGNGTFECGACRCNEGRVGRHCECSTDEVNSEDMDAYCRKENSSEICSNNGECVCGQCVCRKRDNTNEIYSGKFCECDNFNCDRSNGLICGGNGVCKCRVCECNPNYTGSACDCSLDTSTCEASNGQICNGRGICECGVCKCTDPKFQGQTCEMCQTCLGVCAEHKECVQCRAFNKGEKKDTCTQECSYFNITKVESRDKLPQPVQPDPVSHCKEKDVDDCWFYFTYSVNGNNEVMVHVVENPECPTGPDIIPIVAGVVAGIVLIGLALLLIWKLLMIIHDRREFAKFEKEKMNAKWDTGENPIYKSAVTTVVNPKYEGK
Description: In order to confirm that free thiols are present on the integrin VLA-4 in leukemic cells, and that these are blocked by AS101, U937 leukemic cells cultured on fibronectin or BSA were treated with BMCC (1-biotinamido-4-(4′-[maleimidoethylcyclohexane]-carboxamido)butane), a thiol blocker linked to biotin. Some cultures were treated with AS101. The α and β chains of the VLA-4 (α4β1 integrin) were then immunoprecipitated from the treated cells using either anti-α4 or anti-β1 antibodies and blotted with anti-biotin antibody. The presence of free thiols was indicated by bands observed by anti-biotin blotting. The presence of α4 and β1 chains was determined by blotting with anti-α4 and anti-β1 antibodies.

[7] = HL-60, fibronectin-coated plates, 0.5 or 1 μg/ml AS101

## Cl[TeH]1(Cl)(Cl)OCCO1 [AS101, ammonium trichloro(dioxyethylene-O,O′)tellurate]
[1]
  WNV-induced plaque formation: dose-dependent protective effect against the plaque formation
[2]; 24 hours post-infection
  decrease in virus yield: 1 log
[2]; 36 hours post-infection
  decrease in virus yield: 2 log
[3]; 5 μg/ml, 5 and 15 minutes after virus adsorption
  level of cell-bound WNV-E protein (virus attachment): marked reduced the level of WNV-E protein
[3]; 2 and 5 μg/ml, 8 hours after infection
  inhibition of virus protein (WNV-E) expression vs untreated cells: 2-3 fold
[4]; HL-60, BSA-coated or VCAM-1-coated plates
  sensitization to daunorubicin-induced cell death: no visible effect
[4]; [7]
  sensitization to ARA-C-induced cell death: sensitized HL-60 cells to ARA-C-induced cell death on fibronectin-coated plates
  sensitization to daunorubicin-induced cell death: sensitized HL-60 cells to daunorubicin-induced cell death on fibronectin-coated plates in a dose-dependent manner
[5]; U937, BSA-coated plates
  effect on viability of cells exposed to ARA-C: neither AS101 nor anti-VLA-4 antibodies had an effect
[5]; U937, fibronectin-coated plates
  additional sensitization to ARA-C in cells sensitized by anti-VLA-4 antibodies: no additional effect
[5]; U937, fibronectin-coated plates, 0.5 or 1 μg/ml AS101
  sensitization to ARA-C-induced cell death: sensitized U937 cells to ARA-C-induced cell death on fibronectin-coated plates
[5]; U937 on BSA
  effect on viability of cells exposed to ARA-C, alone or in combination: no effect either alone or in combination
[5]; U937 on fibronectin
  sensitization to ARA-C, combination of AS101 and DTNB vs either alone: did not sensitize U937 cells grown on fibronectin to a greater degree than did either AS101 or DTNB alone
[6]
  free thiols on the α chain of VLA-4 (BMCC labelling): eliminated these free thiols
